Test results published in patent US20260240851A1, “Treatment of Parkinson's Disease in a Patient Using a Glucocerebrosidase Activator” (BIAL - R&D Investments, S.A., priority 2023, published 2026).
Like-named read-outs stand apart in the source and are kept apart here.

Tests used:
[1] = BIA 28-6156-107 DDI: effect of multiple-dose carbamazepine on single-dose PK of Compound A; assay type: in vivo, human; conditions: for Tmax / half-life: both sexes, human, in vivo, oral; for Tmax: read-out: Median Tmax; for half-life: read-out: geometric mean t1/2 (converted)
GCase = molecular target: T1, GCase (Homo sapiens, UniProt P04062); test: In vitro GCase brain homogenate activity assay superimposed on estimated human brain Cb,min,ss; assay type: biochemical; conditions: for minimum GCase activity in GBA-PD patients: brain Cmin at steady state (Cb,min,ss), estimated
T1 construct: brain homogenate (5 μg/well) as enzyme source; from tissue; host or cells: human brain homogenate
T1 sequence (P04062 40-536): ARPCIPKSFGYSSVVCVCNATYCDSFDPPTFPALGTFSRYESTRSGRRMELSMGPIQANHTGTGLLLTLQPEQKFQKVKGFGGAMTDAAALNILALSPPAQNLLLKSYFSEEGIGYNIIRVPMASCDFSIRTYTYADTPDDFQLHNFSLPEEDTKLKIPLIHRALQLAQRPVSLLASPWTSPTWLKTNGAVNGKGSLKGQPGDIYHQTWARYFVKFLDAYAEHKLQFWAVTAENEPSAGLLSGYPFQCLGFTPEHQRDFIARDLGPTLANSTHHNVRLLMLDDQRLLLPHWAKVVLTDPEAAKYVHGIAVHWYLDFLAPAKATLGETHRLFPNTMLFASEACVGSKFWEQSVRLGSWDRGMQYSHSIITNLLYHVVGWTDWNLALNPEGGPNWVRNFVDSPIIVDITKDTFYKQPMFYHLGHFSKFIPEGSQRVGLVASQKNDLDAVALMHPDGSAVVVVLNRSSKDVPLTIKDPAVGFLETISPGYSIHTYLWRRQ
Description: The in vitro measurement of GCase activity in human brain homogenates was used to correlate the exposure and GCase activity and to estimate the increase in GCase activity in the brain of GBA-PD patients at Cmin at steady state (Cb,min,ss) across different dose levels. The relationship between concentration observed in brain and CSF in rat was used to obtain the brain concentrations of Compound A in humans, assuming the same relationship conserved among mammalian species. The range of human estimated Cb,min,ss were superimposed to the corresponding concentration from in vitro study with human brain homogenates to obtain the GCase activation by Compound A.
The activity of Compound A in the GCase assay was determined using 4-MUG (1 mM) as substrate and brain homogenate (5 μg/well) as enzyme source.
A 500 μl aliquot of a 1.0 mg/ml solution of phosphatidylserine (PS, Sigma P7769) in chloroform was evaporated under a stream of nitrogen for 1 hour. The lipid film was dissolved with 4 minutes of vigorous vortexing in 41 ml of 176 mM K2HPO4/50 mM citric acid pH 4.7 containing 7.7 μl of triton X-100, resulting in a mixed micellar preparation with a composition of 0.32 mM triton and 4.6 mol % PS.
4-methylumbelliferyl-beta-D-glucopyranoside (4-MUG, ACROS-337025000) was dissolved in the micellar solution to a final concentration of 2 mM for use as the reaction substrate. The micellar/homogenate solution was prepared by adding 3.2 ml Triton X-100/phosphotidylserine mixed micelles containing 400 μg/mL brain homogenate. A 1.6 mL portion of this mixture received 32 μl conduritol B epoxide (CBE, 100 mM stock in DMSO) for final concentration of 2 mM CBE. The remaining 1.6 mL portion received 32 μl DMSO as solvent control. Compound A was diluted with DMSO from a 10 mM stock to the desired assay concentrations, and 0.45 μl of compound in DMSO was added to 75 μl of micellar/homogenate solution (+/−CBE).
After a 30 minute pre-incubation at room temperature, the reaction was initiated by combining 25 μl of substrate solution with 25 μl of compound/GCase/homogenate mixture. The reaction proceeded for 30 minutes at room temperature for Rat, Cyno and Dog brain homogenates, 60 minutes for Mouse and Human brain homogenate. The reaction was stopped by adding 150 μl of 1M glycine, pH 12.5. The endpoint fluorescence intensity of the reaction was measured at excitation 365 nm, emission 440 nm on a SpectraMax i3 instrument (Molecular Devices). Compound activity was expressed relative to a DMSO control. […]
An API4000 mass spectrometer equipped with a turbo ion spray source was used for detection in positive ion mode. Quantification was based on multiple reaction monitoring (MRM) of the transitions of m/z 359.2-174.2 for LTI-291 and m/z 365.3-180.2 for its internal standard. […]

[2] = Compound A + carbamazepine vs Compound A alone
[3] = 60 mg Compound A administered alone

For `CCCCCO[C@H]1CC[C@H](NC(=O)c2cnn3c(C)cc(C)nc23)CC1` [Compound A, 5,7-dimethyl-N-((1S*,4S)-4-(pentyloxy)cyclohexyl)pyrazolo[1,5-a]pyrimidine-3-carboxamide], the “AUC0-inf ratio of geometric least squares means (point estimate)” value [1, 2] was 0.363, the “AUC0-last ratio of geometric least squares means (point estimate)” value [1, 2] was 0.367 and the “Cmax ratio of geometric least squares means (point estimate)” value [1, 2] was 0.877. The Tmax [1, 3] was 1 h, the half-life [1, 3] was 28 h and the Tmax ([1]; 60 mg Compound A coadministered with carbamazepine) was 2 h. The half-life ([1]; Compound A coadministered with carbamazepine) was 12 h, the “reduction of AUC0-inf” value ([1]; with carbamazepine vs alone) was 64% and the “reduction of AUC0-last” value ([1]; with carbamazepine vs alone) was 63%. For the same compound, the “reduction of Cmax” value ([1]; with carbamazepine vs alone) was “approximately 12%”, the “minimum GCase activity in GBA-PD patients” value (GCase; 10 mg) was 69.7-123% and the “minimum GCase activity relative to effective GCase activity” value (GCase; 10 mg, dosing interval 24 h) was “approximately 2 times”. For the same compound, the “minimum GCase activity in GBA-PD patients” value (GCase; 30 mg) was 163-306% and the “minimum GCase activity in GBA-PD patients” value (GCase; 60 mg) was 255-376%.
